Source: patent US20250257060A1, “OXADIAZOLE COMPOUND, PHARMACEUTICAL COMPOSITION COMPRISING SAME, AND USE THEREOF” (SUZHOU GENHOUSE BIO CO., LTD., priority 2022, published 2025)

Tests used:
[1] = Phase I metabolic stability in monkey liver microsomes (CLMs); format: in vitro ADME, cynomolgus monkeys; design: microsomal CLint: dose or concentration left out as unconfirmed; details: CLM; for Remaining rate (NCF = 60 min): buffer instead of NADPH regeneration system; for Remaining rate (T = 60 min): with NADPH; for CLint scaled at 1 µM / half-life at 1 M / microsomal CLint: cynomolgus monkey, liver microsomes, pH 7.4; for microsomal CLint: read-out: CLint (mic)
Experimental: Phase I metabolic stability of the test compounds in liver microsomes of CD-1 mice (MLMs), Sprague-Dawley rats (RLMs), beagle dogs (DLMs), cynomolgus monkeys (CLMs), and humans (HLMs) was evaluated.
The animal and human liver microsomes used in the test system were purchased from Xenotech, Corning, or other qualified suppliers and stored in a freezer at a temperature below −60° C. prior to use.
The test samples and control compounds were separately incubated with animal and human liver microsomes at 37±1° C. for a period of incubation time up to 60 min. The samples were removed at the indicated time points, and the reaction was stopped with acetonitrile or other organic solvents containing an internal standard. After centrifugation, the resulting supernatants were assayed by liquid chromatography-tandem mass spectrometry (LC-MS/MS).
73.21 g of dipotassium hydrogenphosphate trihydrate and 10.78 g of potassium dihydrogenphosphate were dissolved in 4000 mL of ultrapure water. The solution was adjusted to pH 7.40±0.10 with 10% phosphoric acid or 1 M potassium hydroxide to make a final concentration of 100 mM.
The test sample powder was prepared into a stock solution at a certain concentration with DMSO or other organic solvents, which was then further diluted with a proper organic solvent.
Microsomes of each species were diluted into a 2× working solution with a 100 mM potassium phosphate buffer. The final concentration of the microsomes in the reaction system was 0.5 mg/mL.
An appropriate amount of nicotinamide adenine dinucleotide phosphate (NADP) and isocitric acid (ISO) powder was weighed out, dissolved in a magnesium chloride solution, and shaken and mixed well. An appropriate amount of isocitrate dehydrogenase (IDH) was added, and the mixture was mixed well by gently turning upside down. The final concentrations in the reaction system were: 1 mM NADP, 1 mM magnesium chloride, 6 mM ISO, and 1 unit/mL IDH.
Incubation was performed in a 96-well plate. Eight incubation plates were prepared and designated T0, T5, T15, T30, T45, T60, Blank60, and NCF60, respectively. The first 6 plates corresponded to reaction time points of 0, 5, 15, 30, 45, and 60 min, respectively. No test sample or control compound was added to the Blank60 plate, and samples were taken after 60 min of incubation. In the NCF60 plate, incubation was performed for 60 min using the potassium phosphate buffer instead of the NADPH regeneration system solution. Three replicates were made for samples in all conditions.
The microsomes and the test sample or control compound were mixed, and then the incubation plates Blank60, T5, T15, T30, T45, and T60 except for TO and NCF60 were placed in a 37° C. water bath for pre-incubation for about 10 min. In the incubation plate TO, a stop solution was first added, followed by addition of the NADPH regeneration system working solution, and 98 μL of the potassium phosphate buffer was added to each sample well of the incubation plate NCF60 to initiate the reaction. After the pre-incubations of the incubation plates Blank60, T5, T15, T30, T45, and T60 were completed, 98 μL of the NADPH regeneration system working solution was added to each sample well to initiate the reaction. The reaction temperature was 37±1° C., the final volume of the reaction was 200 μL, and the reaction system included 0.5 mg/mL microsomes, […], 1 mM NADP, 6 mM ISO, and 1 unit/mL IDH.
At 5 min, 15 min, 30 min, 45 min, and 60 min, a cold stop solution containing an internal standard was added to the reaction plate to stop the reaction.
All the reaction plates after the reaction was stopped were shaken well and centrifuged at 3220×g at 4° C. for 20 min. After the supernatant was diluted according to a certain proportion, LC-MS/MS analysis was performed.
Sample analysis was performed by the liquid chromatography-tandem mass spectrometry (LC-MS/MS) method without standard curves and quality control samples. […]

[2] = test system: Salmonella typhimurium auxotroph strains TA98 and TA100; assay: Ames assay (mutagenicity test); format: cell-based; details: TA98 and TA100, with or without S9
Experimental: The test strains adopted in the mutagenicity test were Salmonella typhimurium auxotroph strains TA98 and TA100. The test was performed using a 6-well plate in the presence or absence of the S9 metabolic activation system, with both a solvent control group (DMSO) and a positive control group set, with 2 replicate wells per treatment group. Compounds were set at 5 concentrations ranging from 62.5 μg/well to 1000.0 μg/well (equivalent to 312.5 μg/dish to 5000.0 μg/dish in the standard Ames assay). The plate was incubated at 37° C. for 48-72 h, and then bacterial toxicity was measured in each well and the number of mutant colonies in each well was counted. When the number of revertant colonies of the test compound groups is more than twice the number of spontaneous revertant colonies of the solvent control group in a reproducible and dose-dependent manner, the test substance is considered to have positive mutagenicity for the test strain.
In this test, dimethyl sulfoxide (DMSO) was used to dissolve the test substance and served as a negative (solvent) control. In the S9-free group (−S9), 2-nitrofluorene and sodium azide were used as positive controls for TA98 and TA100, respectively; in the S9 group (+S9), 2-aminofluorene was used as a positive control for TA98 and TA100.

| Compound | Remaining rate (NCF = 60 min) [1] | Remaining rate (T = 60 min) [1] | CLint scaled at 1 µM [1] | half-life at 1 M [1] | microsomal CLint [1] | Pollutant mutagenicity test results [2] |
| --- | --- | --- | --- | --- | --- | --- |
| CC(F)(F)C(=O)N[C@@H]1CCCC[C@H]1N1Cc2ccc(-c3nnc(C(F)F)o3)cc2S1(=O)=O [Compound 1] | 94.8% | 79.1% | < 13 mL/min/kg | > 145 min | < 9.6 µL/min/mg |  |
| O=C(N[C@@H]1CCCC[C@H]1N1Cc2ccc(-c3nnc(C(F)F)o3)cc2S1(=O)=O)C(F)F [Compound 2] | 101.5% | 88.8% | < 13 mL/min/kg | > 145 min | < 9.6 µL/min/mg |  |
| O=C(N[C@H]1[C@H](N2Cc3ccc(-c4nnc(C(F)F)o4)cc3S2(=O)=O)CCCC1(F)F)C(F)F [Compound 61] |  |  |  |  |  | Negative |
